This is an account of results in ChEMBL document CHEMBL1201862, “PubChem BioAssay data set” (2004).

What all share (assay): NCI tumour cell line growth inhibition, 48 h
Experiment [1] concerns Hs-578T.
For experiment [2], the system named is OVCAR-5.
Experiment [3] concerns NCI/ADR-RES.
Experiment [4] concerns SK-MEL-28.
Experiment [5] deals with MDA-MB-231.
Experiment [6] concerns MOLT-4.
In experiment [7] the test system is SF-268.
Experiment [8] has as its system SK-MEL-5.
For experiment [9], the system named is IGROV-1.
For experiment [10], the system named is SW-620.
For experiment [11], the system named is K562.
Experiment [12] concerns HOP-92.
The subject of experiment [13] is NCI-H522.
Experiment [14] deals with DU-145.
Experiment [15] concerns KM12.
The subject of experiment [16] is BT-549.
Experiment [17] relates to 786-0.
For experiment [18], the system named is HL-60.
For experiment [19], the system named is CCRF-CEM.
The subject of experiment [20] is MDA-N.

Each structure is given as a SMILES string.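 96-well plates; 48 h exposure; 5 concentrations. Endpoints by linear interpolation between flanking doses. Not reached: highest tested concentration assigned. The concentration for 50% growth inhibition is given as GI50.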 Activity calls are given as the source filed them. Rule as the data show it: active = GI50 up to about 1.1 µM and inactive = higher.

In the case of `Cn1c(CC(O)c2nc3ccccc3n2C)nc2ccccc21` (stereo not given), the GI50 is > 14.5 µM (inactive) in experiment [1]; > 59.7 µM (inactive) in experiment [2]; 29.9 µM (inactive) in experiment [3]; > 32.9 µM (inactive) in experiment [4]; > 34.8 µM (inactive) in experiment [5]; > 13.7 µM (inactive) in [6]. In addition, the GI50 in experiment [7] is > 16.2 µM (inactive); in [8] it was > 32.8 µM (inactive); in experiment [9], > 17.4 µM (inactive); in [10], > 16 µM (inactive); in [11], > 9.51 µM (inactive); in [12], > 24.4 µM (inactive). The GI50 in experiment [13] was > 6.1 µM (inactive); in experiment [14], > 14.6 µM (inactive); in [15], > 100 µM (inactive); in experiment [16], > 34.4 µM (inactive); in experiment [17], > 44.6 µM (inactive); in [18] it was 0.413 µM (active). Moreover, the GI50 in experiment [19] was 2.65 µM (inactive); in experiment [20], > 100 µM (inactive).

Regarding `CCOC(=O)/C=C(/C(=O)OCC)n1ccc(=O)n(/C(=C/C(=O)OCC)C(=O)OCC)c1=O`, the GI50 in [1] is 20.9 µM (inactive); in experiment [2], 17.1 µM (inactive); in experiment [3], 22.9 µM (inactive); in experiment [4], 13.1 µM (inactive); in [5], 16.6 µM (inactive); in experiment [6], 1.76 µM (inactive). Besides, the GI50 is 18.6 µM (inactive) in [7]; 14.5 µM (inactive) in [8]; 15.9 µM (inactive) in [9]; 2.04 µM (inactive) in experiment [10]; 2.99 µM (inactive) in [11]; 2.07 µM (inactive) in experiment [12]. Besides, the GI50 in [13] is 1.61 µM (inactive); in experiment [14], 18.6 µM (inactive); in experiment [15] it was 17.2 µM (inactive); in [16], 15.3 µM (inactive); in experiment [17], 2.4 µM (inactive); in [18] it was 0.859 µM (active). In addition, the GI50 in [19] was 1.37 µM (inactive); in experiment [20], 13.5 µM (inactive).

Turning to `O=C(CN(c1ccc(S(=O)(=O)O)cc1)c1ccc(S(=O)(=O)O)cc1)Nn1cnc2ccc(S(=O)(=O)N(c3ccc(S(=O)(=O)O)cc3)c3ccc(S(=O)(=O)O)cc3)cc2c1=O`, the GI50 in [1], in experiment [2], in experiment [3], in experiment [4], in [5] and in experiment [6] was > 100 µM (inactive) throughout. Moreover, the GI50 in experiment [7] was > 100 µM (inactive); in experiment [8], > 100 µM (inactive); in [9], 61.2 µM (inactive); in experiment [10], > 100 µM (inactive); in [11], > 100 µM (inactive); in [12] it was > 100 µM (inactive). For the same compound, the GI50 in [13], in experiment [14], in [15], in experiment [16], in [17] and in experiment [18] was > 100 µM (inactive) throughout. In addition, the GI50 in experiment [19] and in [20] was > 100 µM (inactive) each time.

For `c1ccc(C2=NN=C3C(c4ccccc4)=Nc4ccccc4N3C2)cc1`, the GI50 in experiment [1] is 26.6 µM (inactive); in experiment [2], 32.2 µM (inactive); in experiment [3], 14.7 µM (inactive); in experiment [4] it was 34.7 µM (inactive); in experiment [5] it was 38.9 µM (inactive); in [6], 3.87 µM (inactive). Also, the GI50 was 9.48 µM (inactive) in [7]; 14.1 µM (inactive) in experiment [8]; 26.5 µM (inactive) in experiment [9]; 10.5 µM (inactive) in experiment [10]; 13.9 µM (inactive) in experiment [11]; 29.3 µM (inactive) in [12]. The GI50 is 3.84 µM (inactive) in experiment [13]; 7.94 µM (inactive) in experiment [14]; 29 µM (inactive) in [15]; 32.4 µM (inactive) in [16]; 11.9 µM (inactive) in experiment [17]; 3.56 µM (inactive) in [18]. For the same compound, the GI50 in experiment [19] was 1.69 µM (inactive); in experiment [20], 31.3 µM (inactive).
